Data as given in publication PMC8958505, “Discovery of Potential Neuroprotective Agents against Paclitaxel-Induced Peripheral Neuropathy” (Journal of Medicinal Chemistry, 2022).

How the values were obtained:
primary cortical neurons [1] = test: Synaptogenesis assay of primary cortical neurons (image-based HCS) against paclitaxel-induced neurotoxicity; type: cell-based, mouse; settings: for activity at 0.01 µM / activity at 1 µM: Mus musculus, Primary cortical neuron; for activity at 0.01 µM: read-out: A: Synaptogenesis (% of control) of test compound (10 nM) + paclitaxel (1 μM); for activity at 1 µM: read-out: B: Synaptogenesis (% of control) of test compound (1000 nM) + paclitaxel (1 μM); for attenuation of synaptogenesis inhibited by paclitaxel (in words): test compound 10 and 1000 nM prior to paclitaxel 1 μM, Figure 1A
Source text: (§1) Herein, we wish to report that an in vitro neurite outgrowth assay of cortical neurons integrated with an image-based high-content screening (HCS) platform is used to evaluate a commercially available library of 78 minoxidil-related derivatives,[22] leading to the identification of a series of analogues able to prevent or alleviate paclitaxel-induced neurotoxicity. The project began with screening compounds with the primary culture of cortical neurons from neonatal mice. More specifically, cerebral cortex neurons cultured from P0 C57BL/6J mouse pups were incubated with a test compound (10 and 1000 nM) prior to paclitaxel (1 μM) treatment. Subsequently, both neurite outgrowth and synaptogenesis were measured to evaluate the test compounds’ neuroprotective capacity. […] This unique feature is preserved for the core-structure screening of our in-house library in the following subject. Moreover, the substituent at the C4 position appears flexible in terms of structural diversity. Collectively, CSV0A024807, the only one displaying the best neuroprotective potency on both neurite outgrowth and synaptogenesis assays, was thus elected as a potential hit compound for further development.
(§2) Primary cortical or DRG cells were fixed with 4% paraformaldehyde for 15 min following compound and paclitaxel treatment. After washing with PBS, the fixed cells were permeabilized with PBS containing 0.05% Triton X-100 for 20 min and then blocked with commercial blocking buffer (#GTX30963; GeneTex, USA) at room temperature for 1 h. Subsequently, the cortical cells were stained for the extending processes and synaptic puncta by using anti-MAP2 (#MBS502140, 1:500; Mybiosource, USA) and anti-synaptophysin (#ab32127, 1:500; Abcam, UK) overnight. DRG cells were stained for the neurite and neuron nucleus by using anti-β III tubulin (#D71G9, 1:600; Cell Signaling, USA) and anti-NeuN monoclonal antibody (#MAB377, 1:400; Millipore, USA) overnight. On the second day, the samples were washed for 30 min with wash buffer and incubated with secondary antibodies (Alexa-488, 647 1:600; Thermo Fisher, USA) and 4 μg/mL Hoechst 33258 (#94403-1ML, 1:100; Merck, USA) at room temperature for 1 h. In the initial experiments of screening the potential neuroprotective compound for CIPN, ImageXpress^Micro (IXM) high-content imaging system (Molecular Devices, USA) driven by MetaXpress software was used. Images of treated cells were automatically acquired by using a 10× objective. Twenty-one images per well were taken in each of three channels (DAPI, FITC, and Cy5) to create a whole view of the entire neural network. The integrity of the neural network was evaluated using TIF images by importing them into MetaXpress software for analysis using the module for multiparameter, such as Neurite Outgrowth, Cell Scoring, and Transfluor. Furthermore, the score of synaptogenesis was analyzed in AcuityXpress software (Molecular Devices, USA).

primary cortical neurons [2] = test: Neurite outgrowth assay of primary cortical neurons (image-based HCS) against paclitaxel-induced neurotoxicity; type: cell-based, mouse; settings: for activity at 0.01 µM / activity at 1 µM: Mus musculus, Primary cortical neuron; for activity at 0.01 µM: read-out: C: Neurite outgrowth (% of control) of test compound (10 nM) + paclitaxel (1 μM); for activity at 1 µM: read-out: D: Neurite outgrowth (% of control) of test compound (1000 nM) + paclitaxel (1 μM)
Source text: as §1, §2

[3] = test compound 10 nM + paclitaxel 1 μM, mean ± SE
[4] = test compound 1000 nM + paclitaxel 1 μM, mean ± SE

| SMILES | activity at 0.01 µM (primary cortical neurons [1]; [3]) [%] | activity at 1 µM (primary cortical neurons [1]; [4]) [%] | activity at 0.01 µM (primary cortical neurons [2]; [3]) [%] | activity at 1 µM (primary cortical neurons [2]; [4]) [%] | further results |
| --- | --- | --- | --- | --- | --- |
| CC(C)(C)c1ccc(C(=O)NNc2cc(N3CCCC3)nc(N3CCCC3)n2)cc1 [CSV0A062713] | 33 ± 1 | 36 ± 2 | 85 ± 8 | 74 ± 5 |  |
| O=[N+]([O-])c1ccc(/C=N/Nc2cc(N3CCCCC3)nc(N3CCCCC3)n2)cc1 [CSV0A011998] | 75 ± 1 | 55 ± 2 | 77 ± 5 | 61 ± 6 |  |
| COc1cc(/C=N/Nc2cc(N3CCCCC3)nc(N3CCCCC3)n2)ccc1O [CSV0B006088] | 45 ± 6 | 52 ± 10 | 59 ± 5 | 66 ± 7 |  |
| CCN(CC)c1ccc(/C=N/Nc2cc(N3CCOCC3)nc(N3CCOCC3)n2)cc1 [CSV0A024804] | 67 ± 8 | 62 ± 3 | 68 ± 2 | 66 ± 1 |  |
| Oc1cccc(/C=N/Nc2cc(N3CCCCC3)nc(N3CCCCC3)n2)c1 [CSV0B001120] | 43 ± 5 | 41 ± 5 | 95 ± 9 | 82 ± 2 |  |
| CCOc1ccc(Nc2nc(/N=C/c3c(OC)c(C(=O)Nc4ccccc4C)cc4ccccc34)c([N+](=O)[O-])c(NCc3ccccc3)n2)cc1 [CSVOD047961] | 30 ± 3 | 36 ± 1 | 90 ± 2 | 95 ± 2 |  |
| CCCN(CCC)c1cc(NNC(=O)CCc2ccccc2)nc(N(CCC)CCC)n1 [CSV0D043578] |  |  |  |  | activity at 0.01 µM (primary cortical neurons [1]): 38 ± 3%; activity at 1 µM (primary cortical neurons [1]): 42 ± 4%; activity at 0.01 µM (primary cortical neurons [2]): 42 ± 5%; activity at 1 µM (primary cortical neurons [2]): 48 ± 1% |
| COc1cc(/C=N/Nc2cc(N3CCOCC3)nc(N3CCOCC3)n2)ccc1O [CSV0B002704] | 38 ± 2 | 29 ± 6 | 79 ± 7 | 65 ± 3 |  |
| CN(C)c1cc(N/N=C/c2ccc(Cl)cc2)nc(N(C)C)n1 [CSV0A027459] | 35 ± 1 | 37 ± 2 | 76 ± 7 | 79 ± 11 |  |
| CN(C)c1ccc(/C=N/Nc2cc(N3CCCCC3)nc(N3CCCCC3)n2)cc1 [CSV0A041618] | 83 ± 2 | 64 ± 7 | 55 ± 2 | 55 ± 2 | attenuation of synaptogenesis inhibited by paclitaxel (in words) (primary cortical neurons [1]): significantly attenuated |
| CN(C)c1ccc(/C=N/Nc2cc(N3CCCC3)nc(N3CCCC3)n2)cc1 [CSV0A027460] | 47 ± 1 | 33 ± 3 | 77 ± 1 | 63 ± 3 |  |
| CC(C)(C)c1ccc(C(=O)NNc2cc(N3CCCCC3)nc(N3CCCCC3)n2)cc1 [CSV0B001160] | 51 ± 5 | 41 ± 1 | 89 ± 7 | 80 ± 5 |  |
| Cc1ccc(S)c(Nc2cc(N)nc(N)n2)n1 [CSV0A0544S0] | 63 ± 5 | 52 ± 8 | 60 ± 2 | 57 ± 5 |  |
| CN(C)c1cc(NNC(=O)c2ccc(Cl)cc2)nc(N(C)C)n1 [CSV0A023089] | 38 ± 3 | 39 ± 6 | 47 ± 2 | 50 ± 5 |  |
| COc1ccc(/C=N/Nc2cc(N(C)C)nc(N(C)C)n2)cc1 [CSV0A034004] | 65 ± 6 | 76 ± 2 | 54 ± 7 | 55 ± 4 |  |
| COc1ccccc1/C=N/Nc1cc(N2CCCC2)nc(N2CCCC2)n1 [CSV0A055771] | 36 ± 2 | 40 ± 8 | 68 ± 6 | 68 ± 3 |  |

| SMILES | activity at 0.01 µM (primary cortical neurons [1]; [3]) [%] | activity at 1 µM (primary cortical neurons [1]; [4]) [%] | activity at 0.01 µM (primary cortical neurons [2]; [3]) [%] | activity at 1 µM (primary cortical neurons [2]; [4]) [%] | further results |
| --- | --- | --- | --- | --- | --- |
| CCN(CC)c1ccc(/C=N/Nc2cc(N3CCCCC3)nc(N3CCCCC3)n2)cc1 [CSV0A023090] | 82 ± 4 | 86 ± 0.4 | 57 ± 4 | 58 ± 3 |  |
| Clc1ccc(/C=N/Nc2cc(N3CCCCCC3)nc(N3CCCCCC3)n2)cc1 [CSV0A027457] | 51 ± 4 | 39 ± 4 | 62 ± 4 | 51 ± 4 |  |
| CCN(CC)c1cc(NNC(=O)CCc2ccccc2)nc(N(CC)CC)n1 [CSV0B009488] | 38 ± 3 | 34 ± 3 | 35 ± 4 | 44 ± 3 |  |
| O=[N+]([O-])c1ccc(/C=N/Nc2cc(N3CCOCC3)nc(N3CCOCC3)n2)cc1 [CSV0A024806] |  |  |  |  | A: Synaptogenesis (% of control) of test compound (10 nM) + paclitaxel (1 μM) (primary cortical neurons [1]; [3]): 68±6 % of control; B: Synaptogenesis (% of control) of test compound (1000 nM) + paclitaxel (1 μM) (primary cortical neurons [1]; [4]): 78±5 % of control; C: Neurite outgrowth (% of control) of test compound (10 nM) + paclitaxel (1 μM) (primary cortical neurons [2]; [3]): 70±3 % of control; D: Neurite outgrowth (% of control) of test compound (1000 nM) + paclitaxel (1 μM) (primary cortical neurons [2]; [4]): 68±6 % of control |
| CN(C)c1cc(N/N=C/c2cccc(O)c2)nc(N(C)C)n1 [CSV0A021190] | 37 ± 1 | 45 ± 1 | 43 ± 1 | 50 ± 2 |  |
| O=[N+]([O-])c1ccc(/C=N/Nc2cc(N3CCCC3)nc(N3CCCC3)n2)cc1 [CSV0A024812] | 55 ± 6 | 62 ± 3 | 53 ± 3 | 60 ± 1 |  |
| O=C(CCc1ccccc1)NNc1cc(N2CCCC2)nc(N2CCCC2)n1 [CSV0C019163] |  |  |  |  | activity at 0.01 µM (primary cortical neurons [1]): 49 ± 4%; activity at 1 µM (primary cortical neurons [1]): 53 ± 1%; activity at 0.01 µM (primary cortical neurons [2]): 68 ± 7%; activity at 1 µM (primary cortical neurons [2]): 74 ± 1% |
| Oc1ccc(Cl)cc1/C=N/Nc1cc(N2CCCC2)nc(N2CCCC2)n1 [CSV0A041619] |  |  |  |  | activity at 0.01 µM (primary cortical neurons [1]): 54 ± 0.03%; activity at 1 µM (primary cortical neurons [1]): 62 ± 2%; activity at 0.01 µM (primary cortical neurons [2]): 62 ± 2%; activity at 1 µM (primary cortical neurons [2]): 61 ± 2% |
| C(=N\Nc1cc(N2CCCCCC2)nc(N2CCCCCC2)n1)/c1ccncc1 [CSV0A061667] | 40 ± 6 | 41 ± 7 | 82 ± 6 | 82 ± 6 |  |
| Clc1ccc(/C=N/Nc2cc(N3CCCC3)nc(N3CCCC3)n2)cc1 [CSV0A024814] | 46 ± 1 | 31 ± 1 | 81 ± 0.005 | 67 ± 2 |  |
| CCN(CC)c1cc(N/N=C/c2cccc(O)c2)nc(N(CC)CC)n1 [CSV0A007879] | 38 ± 3 | 26 ± 5 | 42 ± 5 | 35 ± 4 |  |
| CN(C)c1cc(N/N=C/c2ccc(Cl)cc2Cl)nc(N(C)C)n1 [CSV0A047585] | 67 ± 2 | 56 ± 0.2 | 57 ± 2 | 57 ± 2 |  |
| COc1ccccc1/C=N/Nc1cc(N2CCOCC2)nc(N2CCOCC2)n1 [CSV0A013031] | 57 ± 1 | 33 ± 3 | 74 ± 3 | 67 ± 6 |  |
| O=[N+]([O-])c1cccc(/C=N/Nc2cc(N3CCOCC3)nc(N3CCOCC3)n2)c1 [CSV0A024807] | 92 ± 2 | 97 ± 2 | 69 ± 3 | 60 ± 1 | attenuation of synaptogenesis inhibited by paclitaxel (in words) (primary cortical neurons [1]): significantly attenuated; rescue of neuronal damage caused by paclitaxel (immunofluorescence images) (primary cortical neurons [2]; pretreated, primary cortical neuron culture, Figure 1B): significantly rescued; protective effect in the neurite outgrowth assay (in words) (primary cortical neurons [2]; test compound 10 and 1000 nM prior to paclitaxel 1 μM, Figure 1A): significant protective effect |
| CCN(CC)c1cc(N/N=C/c2ccccc2OC)nc(N(CC)CC)n1 [CSV0A007655] | 39 ± 4 | 41 ± 2 | 45 ± 7 | 51 ± 3 |  |
| C(=N\Nc1cc(N2CCOCC2)nc(N2CCOCC2)n1)/c1ccncc1 [CSV0A024809] | 38 ± 3 | 27 ± 0.5 | 77 ± 2 | 82 ± 3 |  |
